Molecular target: human GLP-1R (Homo sapiens, UniProt P43220)
Test: GLP-1R Cell Assay 1: cAMP Hunter CHO-K1 GLP1R Gs cell line, HitHunter cAMP assay
Assay type: cell-based
Conditions: cAMP Hunter CHO-K1 GLP1R Gs cells, percent activity normalized to Exendin-4
Procedure, shortened: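 CHO-K1 cells overexpressing wild-type human GLP-1R treated with 3-fold serially diluted compounds for 30-60 min at 37 °C. cAMP measured by EFC competitive luminescent immunoassay; activity normalised to Exendin-4, duplicate runs, EC50 by nonlinear regression.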

human GLP-1R, sequence (P43220 24-463): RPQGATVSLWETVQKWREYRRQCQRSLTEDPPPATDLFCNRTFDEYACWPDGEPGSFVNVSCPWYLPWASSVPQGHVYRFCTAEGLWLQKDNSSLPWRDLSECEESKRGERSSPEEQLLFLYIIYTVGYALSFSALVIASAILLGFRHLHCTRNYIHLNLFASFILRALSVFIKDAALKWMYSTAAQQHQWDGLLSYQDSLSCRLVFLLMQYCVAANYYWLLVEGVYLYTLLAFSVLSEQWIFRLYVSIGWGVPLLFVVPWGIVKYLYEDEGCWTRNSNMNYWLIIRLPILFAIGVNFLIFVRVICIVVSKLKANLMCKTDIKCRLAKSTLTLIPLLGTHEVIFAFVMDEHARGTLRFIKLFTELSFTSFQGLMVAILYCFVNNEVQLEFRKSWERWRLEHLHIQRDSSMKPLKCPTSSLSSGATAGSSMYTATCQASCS

EC50 (Table 2) [nM] | EC50 (Table 3) [nM] | Compound
2.6 |  | N#Cc1ccc2sc(COc3cccc(N4CCN(Cc5nc6ccc(C(=O)O)cc6n5C[C@@H]5CCO5)CC4)n3)nc2c1 [Compound 129, (S)-2-((4-(6-((5-cyanobenzo[d]thiazol-2-yl)methoxy)pyridin-2-yl)piperazin-1-yl)methyl)-1-(oxetan-2-ylmethyl)-1H-benzo[d]imidazole-6-carboxylic acid]
> 500 |  | O=C(O)c1ccc2nc(CN3CCN(c4cccc(OCC5CCOCC5)n4)CC3)n(C[C@@H]3CCO3)c2c1 [Compound 33, (S)-1-(oxetan-2-ylmethyl)-2-((4-(6-((tetrahydro-2H-pyran-4-yl)methoxy)pyridin-2-yl)piperazin-1-yl)methyl)-1H-benzo[d]imidazole-6-carboxylic acid]
135 |  | N#Cc1ccc2c(c1)CN(c1cccc(N3CCN(Cc4nc5ccc(C(=O)O)cc5n4C[C@@H]4CCO4)CC3)n1)CCC2 [Compound 66, (S)-2-((4-(6-(8-cyano-1,3,4,5-tetrahydro-2H-benzo[c]azepin-2-yl)pyridin-2-yl)piperazin-1-yl)methyl)-1-(oxetan-2-ylmethyl)-1H-benzo[d]imidazole-6-carboxylic acid]
5.19 |  | N#Cc1ccc(COc2cccc(C3CCN([C@H]4COCCn5c4nc4ccc(C(=O)O)cc45)CC3)n2)c(F)c1 (single isomer, unassigned) [Compound 7-P1]
> 500 |  | N#Cc1ccc2c(c1)CCN(c1cccc(N3CCN(Cc4nc5ccc(C(=O)O)cc5n4C[C@@H]4CCO4)CC3)n1)CC2 [Compound 2, (S)-2-((4-(6-(7-cyano-4,5-dihydro-1H-benzo[d]azepin-3(2H)-yl)pyridin-2-yl)piperazin-1-yl)methyl)-1-(oxetan-2-ylmethyl)-1H-benzo[d]imidazole-6-carboxylic acid]
8.35 |  | N#Cc1ccc(COc2ccn(C3CCN(Cc4nc5ccc(C(=O)O)cc5n4C[C@@H]4CCO4)CC3)n2)c(F)c1 [Compound 92, (S)-2-((4-(3-((4-cyano-2-fluorobenzyl)oxy)-1H-pyrazol-1-yl)piperidin-1-yl)methyl)-1-(oxetan-2-ylmethyl)-1H-benzo[d]imidazole-6-carboxylic acid]
4.6 |  | Cn1cnc2ccc(COc3cccc(N4CCN(Cc5nc6ccc(C(=O)O)cc6n5C[C@@H]5CCO5)CC4)n3)cc21 [Compound 72, (S)-2-((4-(6-((1-methyl-1H-benzo[d]imidazol-6-yl)methoxy)pyridin-2-yl)piperazin-1-yl)methyl)-1-(oxetan-2-ylmethyl)-1H-benzo[d]imidazole-6-carboxylic acid]
207 |  | NC(=O)c1cnc(COc2cccc(N3CCN(Cc4nc5ccc(C(=O)O)cc5n4C[C@@H]4CCO4)CC3)n2)nc1 [Compound 81, (S)-2-((4-(6-((5-carbamoylpyrimidin-2-yl)methoxy)pyridin-2-yl)piperazin-1-yl)methyl)-1-(oxetan-2-ylmethyl)-1H-benzo[d]imidazole-6-carboxylic acid]
3740 |  | O=C(O)c1ccc2nc(CN3CCC(n4ccc(OCc5ccccc5)n4)CC3)n(C[C@@H]3CCO3)c2c1 [Compound 22, (S)-2-((4-(3-(benzyloxy)-1H-pyrazol-1-yl)piperidin-1-yl)methyl)-1-(oxetan-2-ylmethyl)-1H-benzo[d]imidazole-6-carboxylic acid]
5.93 |  | N#Cc1ccc(COc2nn(C3CCN(Cc4nc5ccc(C(=O)O)cc5n4C[C@@H]4CCO4)CC3)cc2C(F)(F)F)c(F)c1 [Compound 117, (S)-2-((4-(3-((4-cyano-2-fluorobenzyl)oxy)-4-(trifluoromethyl)-1H-pyrazol-1-yl)piperidin-1-yl)methyl)-1-(oxetan-2-ylmethyl)-1H-benzo[d]imidazole-6-carboxylic acid]
 | > 500 | N#Cc1ccc2c(c1)CCC[C@H]2Oc1cccc(C2CCN(Cc3nc4ccc(C(=O)O)cc4n3C[C@@H]3CCO3)CC2)n1 (single isomer, unassigned) [Compound 146-P1]
28.7 |  | O=C(O)c1ccc2nc(CN3CCC(n4ccc(OCc5nc6ccccc6s5)n4)CC3)n(C[C@@H]3CCO3)c2c1 [Compound 101, (S)-2-((4-(3-(benzo[d]thiazol-2-ylmethoxy)-1H-pyrazol-1-yl)piperidin-1-yl)methyl)-1-(oxetan-2-ylmethyl)-1H-benzo[d]imidazole-6-carboxylic acid]
> 500 |  | CS(=O)(=O)N1CCC(COc2cccc(N3CCN(Cc4nc5ccc(C(=O)O)cc5n4C[C@@H]4CCO4)CC3)n2)CC1 [Compound 52, (S)-2-((4-(6-((1-(methylsulfonyl)piperidin-4-yl)methoxy)pyridin-2-yl)piperazin-1-yl)methyl)-1-(oxetan-2-ylmethyl)-1H-benzo[d]imidazole-6-carboxylic acid]
> 500 |  | N#Cc1ccc(COc2cccc(C3CCN([C@@H]4CCCCn5c4nc4ccc(C(=O)O)cc45)CC3)n2)c(F)c1 [Compound 90, (R)-6-(4-(6-((4-cyano-2-fluorobenzyl)oxy)pyridin-2-yl)piperidin-1-yl)-7,8,9,10-tetrahydro-6H-benzo[4,5]imidazo[1,2-a]azepine-2-carboxylic acid]
0.222 |  | O=C(O)c1ccc2nc(CN3CCC(c4cccc(OCc5ncc(Cl)s5)n4)CC3)n(C[C@@H]3CCO3)c2c1 [Compound 134, (S)-2-((4-(6-((5-chlorothiazol-2-yl)methoxy)pyridin-2-yl)piperidin-1-yl)methyl)-1-(oxetan-2-ylmethyl)-1H-benzo[d]imidazole-6-carboxylic acid]
> 500 |  | N#Cc1ccc(COc2cccc(C3CCN([C@@H]4CCCn5c4nc4ccc(C(=O)O)cc45)CC3)n2)c(F)c1 [Compound 87, (R)-4-(4-(6-((4-cyano-2-fluorobenzyl)oxy)pyridin-2-yl)piperidin-1-yl)-1,2,3,4-tetrahydrobenzo[4,5]imidazo[1,2-a]pyridine-8-carboxylic acid]
3.65 |  | N#Cc1cccc2c1CN(c1cccc(N3CCN(Cc4nc5ccc(C(=O)O)cc5n4C[C@@H]4CCO4)CC3)n1)CC2 [Compound 109, (S)-2-((4-(6-(8-cyano-3,4-dihydroisoquinolin-2(1H)-yl)pyridin-2-yl)piperazin-1-yl)methyl)-1-(oxetan-2-ylmethyl)-1H-benzo[d]imidazole-6-carboxylic acid]
9.24 |  | N#Cc1cnc(COc2cccc(N3CCN(Cc4nc5ccc(C(=O)O)cc5n4C[C@@H]4CCO4)CC3)n2)nc1 [Compound 16, (S)-2-((4-(6-((5-cyanopyrimidin-2-yl)methoxy)pyridin-2-yl)piperazin-1-yl)methyl)-1-(oxetan-2-ylmethyl)-1H-benzo[d]imidazole-6-carboxylic acid]
15.7 |  | Cn1c(COc2cccc(N3CCN(Cc4nc5ccc(C(=O)O)cc5n4C[C@@H]4CCO4)CC3)n2)nc2ccccc21 [Compound 71, (S)-2-((4-(6-((1-methyl-1H-benzo[d]imidazol-2-yl)methoxy)pyridin-2-yl)piperazin-1-yl)methyl)-1-(oxetan-2-ylmethyl)-1H-benzo[d]imidazole-6-carboxylic acid]
228 |  | NC(=O)c1ccc2c(c1)CCN(c1cccc(N3CCN(Cc4nc5ccc(C(=O)O)cc5n4C[C@@H]4CCO4)CC3)n1)C2 [Compound 59, (S)-2-((4-(6-(6-carbamoyl-3,4-dihydroisoquinolin-2(1H)-yl)pyridin-2-yl)piperazin-1-yl)methyl)-1-(oxetan-2-ylmethyl)-1H-benzo[d]imidazole-6-carboxylic acid]
 | > 500 | N#Cc1ccc(CN2CCCc3ccc(N4CCN(Cc5nc6ccc(C(=O)O)cc6n5C[C@@H]5CCO5)CC4)nc32)c(F)c1 [Compound 148, (S)-2-((4-(8-(4-cyano-2-fluorobenzyl)-5,67,8-tetrahydro-1,8-naphthyridin-2-yl)piperazin-1-yl)methyl)-1-(oxetan-2-ylmethyl)-1H-benzo[d]imidazole-6-carboxylic acid]
36.4 |  | O=C(O)c1ccc2nc(CN3CCN(c4cccc(OCC5CCC(F)(F)CC5)n4)CC3)n(C[C@@H]3CCO3)c2c1 [Compound 36, (S)-2-((4-(6-((4,4-difluorocyclohexyl)methoxy)pyridin-2-yl)piperazin-1-yl)methyl)-1-(oxetan-2-ylmethyl)-1H-benzo[d]imidazole-6-carboxylic acid]
315 |  | N#Cc1cccc2c1CCCN2c1cccc(N2CCN(Cc3nc4ccc(C(=O)O)cc4n3C[C@@H]3CCO3)CC2)n1 [Compound 5, (S)-2-((4-(6-(5-cyano-3,4-dihydroquinolin-1(2H)-yl)pyridin-2-yl)piperazin-1-yl)methyl)-1-(oxetan-2-ylmethyl)-1H-benzo[d]imidazole-6-carboxylic acid]
2.24 |  | O=C(O)c1ccc2nc(CN3CCN(c4cccc(OCc5nc6cccnc6s5)n4)CC3)n(C[C@@H]3CCO3)c2c1 [Compound 122, (S)-1-(oxetan-2-ylmethyl)-2-((4-(6-(thiazolo[5,4-b]pyridin-2-ylmethoxy)pyridin-2-yl)piperazin-1-yl)methyl)-1H-benzo[d]imidazole-6-carboxylic acid]
8 |  | C[C@H](Oc1cccc(N2CCN(Cc3nc4ccc(C(=O)O)cc4n3C[C@@H]3CCO3)CC2)n1)c1nc2ccccc2s1 [Compound 115, 2-((4-(6-((S)-1-(benzo[d]thiazol-2-yl)ethoxy)pyridin-2-yl)piperazin-1-yl)methyl)-1-(((S)-oxetan-2-yl)methyl)-1H-benzo[d]imidazole-6-carboxylic acid]
> 500 |  | N#Cc1ccc(COc2cccc(C3CCN([C@@H]4COCCn5c4nc4ccc(C(=O)O)cc45)CC3)n2)c(F)c1 (single isomer, unassigned) [Compound 7-P2]

Compound | EC50 (Table 2) [nM] | EC50 (Table 3) [nM]
CCn1cncc1Cn1c(CN2CC[C@]3(c4cccc(OCc5ccc(C#N)cc5F)n4)C[C@@H]3C2)nc2ccc(C(=O)O)cc21 (single isomer, unassigned) [Compound 121-P2] | 0.0386 | 
O=C(O)c1ccc2nc(CN3CC[C@@]4(c5cccc(OCc6nc7ccccc7s6)n5)C[C@H]4C3)n(C[C@@H]3CCO3)c2c1 (single isomer, unassigned) [Compound 104-P1] | 4.91 | 

— patent US20220089578A1, “COMPOUNDS AS GLP-1R AGONISTS” (Terns Pharmaceuticals, Inc., priority 2020, published 2022)
